Laboratory results taken from patent publication US20220401483A1, “COMBINATION OF A T CELL THERAPY AND (S)-3-[4-(4-MORPHOLIN-4-YLMETHYL-BENZYLOXY)-L-OXO-L,3-DIHYDRO-ISOINDOL-2-YL]-PIPERIDINE-2,6-DIONE” (Juno Therapeutics, Inc., priority 2019, published 2022).

Columns and labels:
[1] = test system: Ikaros; assay: Intracellular Ikaros expression in stimulated anti-CD19 CAR-expressing T cells (flow cytometry MFI); type: cell-based, human
Procedure: (§1) T cell compositions containing anti-CD19 CAR-expressing T cells were generated from leukapheresis samples from three healthy human adult donors by a process including immunoaffinity-based selection of T cells (including CD4+ and CD8+ cells) from the samples, resulting in two compositions, enriched for CD8+ and CD4+ cells, respectively. The cells were incubated in the presence of (S)-3-[4-(4-morpholin-4-ylmethyl-benzyloxy)-1-oxo-1,3-dihydro-isoindol-2-yl]-piperidine-2,6-dione (Compound A) or 3-(5-amino-2-methyl-4-oxo-4H-quinazolin-3-yl)-piperidine-2,6-dione (Compound B), and expression of the transcription factors Ikaros and Aiolos was assessed. Cells of the enriched CD4+ and CD8+ compositions were separately activated with anti-CD3/anti-CD28 beads and subjected to lentiviral transduction with a vector encoding an anti-CD19 CAR. The anti-CD19 CAR contained an anti-CD19 scFv derived from a murine antibody (variable region derived from FMC63), an immunoglobulin-derived spacer, a transmembrane domain derived from CD28, a costimulatory region derived from 4-1BB, and a CD3-zeta intracellular signaling domain. The expression construct in the viral vector further contained sequences encoding a truncated receptor, which served as a surrogate marker for CAR expression, which was separated from the CAR sequence by a T2A ribosome skip sequence. Transduced populations then were separately incubated in the presence of stimulating reagents for cell expansion. Expanded CD8+ and CD4+ cells were formulated and cryopreserved separately and stored. The cryopreserved CD4+ and CD8+ anti-CD19 CAR-expressing cells from each donor were thawed, and combined at approximately a 1:1 CAR+CD4+:CD8+ ratio prior to use. Approximately 2.5×10^5 cells of the generated CAR+ T cell composition were stimulated overnight with 1 μg/ml of a CAR-specific anti-idiotypic antibody in the presence of 3-(5-amino-2-methyl-4-oxo-4H-quinazolin-3-yl)-piperidine-2,6-dione (Compound B) or (S)-3-[4-(4-morpholin-4-ylmethyl-benzyloxy)-1-oxo-1,3-dihydro-isoindol-2-yl]-piperidine-2,6-dione (Compound A) at concentrations ranging from 10 to 10000 nM or a vehicle control overnight at 37° C., 5% C02. Following overnight incubation, anti-CD19 CAR-expressing T cells were stained with antibodies and analyzed by flow cytometry to assess intracellular levels of Ikaros and Aiolos in CD4+ CAR+ or CD8+ CAR+ cells, as measured by median fluorescence intensity (MFI). Median fluorescence intensity (MFI) values for Ikaros and Aiolos were normalized and calculated as a percentage relative to vehicle control. […] The EC50 for reducing Aiolos and Ikaros expression was calculated as determined from the concentration of the inhibitor that reduced Aiolos or Ikaros MFI to 50% of its maximal MFI in the absence of the inhibitor.

[2] = test system: Granta-519 tumor spheroids; assay: Spheroid tumor growth assay after chronic stimulation with concurrent treatment; type: cell-based, human
Procedure: CAR T cells that had been stimulated for 6 days with anti-ID concurrently in the presence of Compound A (0.001 μM or 0.01 μM) were co-cultured with by incubation with Granta-519 tumor spheroids, and CAR T cell cytolytic function and cytokine function were assessed at various time points. For comparison, cytolytic activity was also assessed for cells that had been similarly chronically stimulated with anti-ID in the presence of 1 μM or 0.1 μM Compound B. Averaged measurement of tumor spheroid size at various times following co-culture with CAR-T cells was monitored.
Cytokines (IFNγ, IL-2 and TNFalpha) were measured from supernatant of the chronically stimulated CAR T cells above that had been co-cultured for 5 days with CD19 tumor spheroids. The log 2 fold change compared to control cells (chronically stimulated cells that had not been concurrently treated with Compound A immunomodulatory compound) is shown in FIG. 3F.

[3] = Cmax in healthy subjects; settings: human, in vivo, doses of 0.3 mg and 1.0 mg
[4] = test system: Aiolos; assay: Intracellular Aiolos expression in stimulated anti-CD19 CAR-expressing T cells (flow cytometry MFI); type: cell-based, human
Procedure: as §1

[5] = overnight incubation, 1 μg/ml anti-idiotypic antibody, average of donors (range, 95% confidence interval)

Structure (SMILES): O=C1CC[C@H](N2Cc3c(OCc4ccc(CN5CCOCC5)cc4)cccc3C2=O)C(=O)N1 [Compound A, (S)-3-[4-(4-morpholin-4-ylmethyl-benzyloxy)-1-oxo-1,3-dihydro-isoindol-2-yl]-piperidine-2,6-dione]
- intracellular Ikaros expression ([1]; 10 to 10000 nM, overnight): concentration dependent decrease
- EC50 [1, 5]: 4 nM
- cytolytic function, average tumor volume after 9 days [2]: significantly increased cytolytic function
- cytolytic function, Granta-519 spheroid growth ([2]; 0.001 μM or 0.01 μM): improved cytolytic function
- IFNγ in co-culture supernatant ([2]; 5 days co-culture with spheroids): statistically significant increase
- improvement in cytolytic function compared with Compound B ([2]; Compound B 1 μM or 0.1 μM): greater
- Cmax [3]: 2.41 to 11.8 nM
- intracellular Aiolos expression ([4]; 10 to 10000 nM, overnight): concentration dependent decrease
- potency relative to Compound B in degradation of Ikaros and Aiolos ([4]; CAR-expressing T cells): 10-20 fold
- EC50 [4, 5]: 2.5 nM
